{"source": "patent US20240051997A1", "about": "“SAP AND PEPTIDOMIMETIC COMPOSITIONS FOR REDUCING SYMPTOMS OF INFLAMMATION” (Arch Biosurgery, Inc., priority 2018, published 2024)", "key": {"[1]": {"test_system": "olfactory bulb inflammation, GFAP (reactive astrocytes)", "experiment": "Olfactory bulb injury model (transection), GFAP immunohistochemistry", "assay_type": "in vivo, Sprague-Dawley rat", "conditions": "rat olfactory bulb, days 2-14", "description": "The anti-inflammatory effects of EARA-16 (SEQ ID NO: 89) and RADA-16 (SEQ ID NO: 1) were examined using an olfactory bulb injury model. Levels of inflammation were assayed through immunohistochemical staining for glial fibrillary acidic protein (GFAP) as an indicator of reactive astrocytes.\nIn brief, the olfactory bulbs of adult Sprague-Dawley rats were unilaterally transected and the cuts were then treated with either saline as a control, or one of RADA-16 (SEQ ID NO: 1) or EARA-16 (SEQ ID NO: 89) solutions (each used at 1% and 3%). The SAP materials were injected into the cuts post transection at the time of surgery. After 2, 7 or 14 days, the animals were sacrificed.\nA more detailed protocol is as follows: adult Sprague-Dawley rats were anesthetized with a mixture of ketamine (80 mg/kg, i. p.) and xylazine (8 mg/kg, i. p.). The head was shaved and a thorough disinfection of the head surface was carried out with iodine 5% solution. The bilateral olfactory bulbs were exposed by drilling two burr holes (2 mm diameter, 8 mm anterior to the bregma) on either side at a distance of 2 mm from the midline of the frontal bone in the region overlying the olfactory bulbs. A cataract knife with a blunted end and one sharpened edge was used for surgery. The cut was performed on the middle of olfactory bulb. The blunted edge of the knife was inserted along the middle line of the olfactory bulb to prevent damage of the sagittal sinus, until the tip of the knife lightly touched the bottom of the brain without penetration of the dura. The knife was then moved laterally to transect the bulb until it reached the lateral edge of the hole. The knife was then rotated and pulled out to have a complete cut of the bulb at lateral side. This procedure was modified from the method described in several previous studies attempting to isolate the olfactory bulb from other parts of the brain (Ahrens & Freeman 2001; Allison 1953; Chaput 1983; Freeman 1968; Koliatsos et al 2004; Munirathinam et al 1997).\nAfter performing the cut, one of the solutions was used to treat the injury site: either 10 μl saline (control group) or the EARA-16 (SEQ ID NO: 89) or RADA-16 (SEQ ID NO: 1) SAP (at a concentration of 1% and 3%) was injected evenly into the wound site using a self-constructed hydraulic pressure injection system without micro syringe. This technique was modified from similar methods as described by Bullier and others (Bullier et al 1980; Fish & Rhoades 1981; Kratskin et al 1997; Meyers & Snow 1981; Price et al 1977; Shipley 1982). Care was taken to control the speed of the injection of the saline or the SAP. After the injection, the wound was closed and the animals were placed in a warm place for recovery before they were brought back to their home cages. […]"}, "Human THP-1 cells": {"test_system": "Human THP-1 cells", "experiment": "Cytokine release by THP-1 cells exposed to LPS/RADA-16 mixture", "assay_type": "cell-based", "conditions": "LPS 1 μg/ml added to 1, 10 or 100 μg/well peptide, then to THP-1 cells", "description": "The anti-inflammatory effect of a SAP was examined using an in vitro assay to assess cytokine release by human THP-1 cells in the presence of SAP. Measurement of THP-1 cell activation in response to antigen was assessed by cytokine release.\nTo assess cytokine release upon THP-1 cell activation, lipopolysaccharides (LPS) from Salmonella typhimurium (catalog no. L-7261; Sigma-Aldrich, St. Louis, MO) were added to THP-1 cells, at a concentration of 1 μg/ml.\nTo determine the effects of exposing THP-1 cells to RADA-16 (SEQ ID NO: 1) upon cytokine release, LPS was added to each of the 1 μg/well, 10 μg/well, or 100 μg/well RADA-16 samples, and then added to THP-1 cells.\nThe release of cytokines in response to exposure of THP-1 cells to RADA-16 (SEQ ID NO: 1) or LPS was measured using the PROTEOME PROFILER™ Array kit, commercially available as a test strip kit for detection of cytokines in solution (R&D Systems, Inc., Catalog Number ARY005). The assay was carried out according to the manufacturer's guide lines."}}, "note": "Entries after “also recorded” stand apart in the source; their conditions may differ."}
{"sequence": "RADARADARADARADA [RADA-16, self-assembling peptide]", "values": [{"measurement": "time course of reactive astrocyte activation / inflammation (GFAP)", "setting": "[1]; 1% solution", "result": "increased activation of reactive astrocytes on day 7 which subsequently reduced by day 14"}, {"measurement": "time course of reactive astrocyte activation / inflammation (GFAP)", "setting": "[1]; 3% solution", "result": "increased activation of reactive astrocytes on day 7 which subsequently reduced by day 14"}, {"measurement": "cytokine release upon LPS exposure (C5a, TNFSF2, IL-6, IL-8/CXCL8, MCP-1/CCL2, MIP-1/CCL3, MIP-1/CCL4, IL-1/IL1-F2)", "setting": "Human THP-1 cells", "result": "reduced levels of cytokine release; also recorded: prevented or reduced the release of cytokines"}]}
